{
  "source": "patent US20110027300A1",
  "about": "“Identification of a novel cysteine-rich cell penetrating peptide” (Max-Planck-Gesellschaft zur Forderung der Wissenschaften …, priority 2008, published 2011)",
  "key": {"NIH 3T3 fibroblasts [1]": {"test_system": "NIH 3T3 fibroblasts", "test": "Uptake assay: cell-related FITC fluorescence corrected for cell number", "type": "cell-based, mouse", "conditions": "for cellular uptake / internalization efficiency: K(FITC)-labelled peptide", "protocol": "NIH 3T3 mouse fibroblast cells were cultured as a monolayer at 37° C. with 10% CO2 in Dulbecco's Modified Eagle's Medium (DMEM) supplemented with 10% fetal bovine serum, 4 mM L-glutamine, 100 μg/mL streptomycin and 100 U/mL penicillin (all purchased from Biochrom AG, Germany). Cells were passaged by trypsinization with trypsin/EDTA 0.05/0.02% (w/v) in phosphate-buffered saline (PBS; Biochrom AG, Germany) every second to third day.\n(§1) Internalization experiments on cells were performed in 96 well microplates by inoculation of NIH 3T3 fibroblasts (1×10^4 cells/well). After 24 h, cells were incubated with 2.5 μM of different peptide solutions in DMEM for additional 18 h at 37° C. with 10% CO2. Before washing, cells were incubated with Bisbenzimid 33342 (Hoechst 33342), a nuclear stain, in order to estimate the cell number. Cells were washed with Hanks' buffered saline (Biochrom AG, Germany) and extracellular fluorescence was quenched by incubating with cold trypan blue 0.05% (w/v) in phosphate-buffered saline (Biochrom AG, Germany) for 3 min followed by repeated washes with Hanks' buffered saline. Cell-related FITC fluorescence (Ex 485 nm/Em 530 nm) and cell number (Ex 346 nm/Em 460 nm) was evaluated in a multiplate reader. Experiments were run at least three times for each peptide with six replicates. Statistical analysis was performed by Student's t-test or ANOVA with Dunnett's post test. P values <0.05 were considered significant. The results are depicted in FIGS. 1 to 3."}, "[2]": {"test_system": "different cell types and mouse blastocysts", "conditions": "cited from earlier work"}, "[3]": {"test_system": "differentiated N18 neuroblastoma cells", "test": "Internalization in additional cell lines", "type": "cell-based, mouse", "conditions": "differentiated N18, serum reduced from 10% to 1.25%", "protocol": "(§2) C6 rat glioma N18 mouse neuroblastoma (differentiated, undifferentiated) CCL-11 mouse fibrosarcoma Shin3 human ovarian carcinoma PANC1 human pancreatic carcinoma Primary murine bone marrow cells\n(§3) Cells were cultivated using their respective optimized growth medium and passaged as described. Differentiation was induced in N18 cells by stepwise reduction of serum in the growth medium from 10% to 1.25%.\nas §1, with “P values <0.05 were considered significant. The results are depicted in FIGS. 1 to 3.” left out"}, "[4]": {"test_system": "Primary murine bone marrow cells", "test": "Internalization in additional cell lines", "type": "cell-based, mouse", "protocol": "as §2\nBone marrow cells were extracted from hind legs of sacrificed mice and were kept in supplemented IMDM medium.\nas §1, with “3. […]” for “3.”"}, "NIH 3T3 fibroblasts [5]": {"test_system": "NIH 3T3 fibroblasts", "test": "Fluorescence microscopy of cellular localization and distribution of the peptide", "type": "cell-based, mouse", "conditions": "for intracellular fluorescence distribution (vesicular / diffused cytosolic): K(FITC)-labelled peptide, 2.5 μM, live cells without fixation", "source_text": "(§4) The same cells were subjected to microscopic studies without fixation using a Zeiss Axiovert 200 M (Germany) microscope with a LD Plan NeoFluor 40× objective. The imaging conditions were kept constant for the observation of different samples. Cellular localization and distribution of the peptide was observed by irradiating with blue light (470/40 nm) and observing at 525/50 nm. The bright punctate and encapsulated appearing FITC fluorescence was categorized as vesicular uptake while diffused fluorescence appeared to be distributed in the entire cell with similar intensity. […] Also phase contrast images with DIC of the same area were made to observe if the cells maintain their normal morphology in the presence of peptides."}, "[6]": {"test": "Peptide NMR in water, solution state", "type": "physicochemical", "protocol": "Sample solutions were prepared at pH 4-4.5 and pH 6.5-7 in water. At pH 4.5 standard set of 2D homonuclear experiments (2D-ipCOSY, 2D-TOCSY, two 2D-NOESY spectra at different mixing times (100 and 200 ms)) and heteronuclear experiments (^13C-HSQC and ^15N-HSQC) were performed. The sample yielded well resolved spectra consistent with a monomeric peptide. Using these spectra it was possible to complete a full assignment of all non-exchangeable proton resonances, plus the carbon and nitrogen resonances.\nWhereas at pH 6.5, broadening of lines, probably due to the formation of high molecular weight aggregates, makes it difficult to assign individual resonances. Thus, the presence or absence of disulfide bridges in this sample could not be deduced.\nNMR experiments were carried out at 600 MHz on a Bruker Avance III spectrometer."}, "C6 rat glioma": {"test_system": "C6 rat glioma", "test": "Internalization in additional cell lines", "type": "cell-based", "protocol": "as §2, §3, §1, §4"}, "[7]": {"test_system": "CCL-11 mouse fibrosarcoma", "test": "Internalization in additional cell lines", "type": "cell-based", "protocol": "as §2, §3, §1, §4"}, "[8]": {"test_system": "Shin3 human ovarian carcinoma", "test": "Internalization in additional cell lines", "type": "cell-based", "protocol": "as §2, §3, §1, §4"}, "[9]": {"test_system": "PANC1 human pancreatic carcinoma", "test": "Internalization in additional cell lines", "type": "cell-based", "protocol": "as §2, §3, §1, §4"}, "[10]": {"test_system": "N18 mouse neuroblastoma (undifferentiated)", "test": "Internalization in additional cell lines", "type": "cell-based", "protocol": "as §2, §3, §1, §4"}, "cells": {"test_system": "cells", "conditions": "cited from earlier work"}},
  "note": "Read-outs that look alike come from different tables or passages of the source. Square brackets hold non-standard residues; d marks the D form. Ends that are not written are not given here. K(FITC) = lysine labelled with FITC",
  "data": [
    {"substance": "Ac-tccgtgaacggc-K(FITC)-CRWRWKCCKK-CONH2 (chain 1 Ac-[code t][code c][code c][code g][code t][code g][code a][code a][code c][code g][code g][code c]; chain 2 {K(FITC)}-CRWRWKCCKK-NH2; not fully specified (C-terminus); cysteine pairing not given here; also: chain 1 is a PNA strand joined via Lys(FITC) to peptide chain 2) [PNA-CyLoP-1 fusion]", "values": [
      {"measurement": "uptake compared to peptide 23 (CyLoP-1)", "setting": "NIH 3T3 fibroblasts [1]; 2.5 μM, 18 h, 37° C.", "value": "lowest intracellular fluorescence"}
    ]},
    {"substance": "Crotamine", "values": [
      {"measurement": "intracellular localization", "setting": "[2]; applied before cell division, after the telophase", "value": "mainly localized in the cytoplasm"},
      {"measurement": "intracellular localization", "setting": "[2]", "value": "localize preferably in the nucleus"},
      {"measurement": "non-toxic concentration", "setting": "[2]", "value": "up to 1 μM"},
      {"measurement": "cell penetration", "setting": "[2]; in vitro", "value": "penetrating into different cell types and mouse blastocysts"}
    ]},
    {"substance": "K (FITC)-CRWRWKCCKK ({K(FITC)}-CRWRWKCCKK; cysteine pairing not given here) [peptide 23]", "values": [
      {"measurement": "uptake", "setting": "[3]", "value": "strongly reduced"},
      {"measurement": "uptake behaviour and fluorescence distribution", "setting": "[4]", "value": "comparable uptake behaviour with vesicular as well as diffused cytosolic fluorescence distribution"},
      {"measurement": "intracellular fluorescence distribution (vesicular / diffused cytosolic)", "setting": "NIH 3T3 fibroblasts [5]", "value": "endosomal as well as cytoplasmic fluorescence distribution"},
      {"measurement": "cytosolic distribution at low concentration", "setting": "NIH 3T3 fibroblasts [5]; concentration as low as 2.5 μM", "value": "retaining the cytosolic distribution"},
      {"measurement": "solution state of the peptide", "setting": "[6]; pH 4.5 in water", "value": "unstructured and in a reduced state"},
      {"measurement": "solution state of the peptide", "setting": "[6]; pH 6.5 in water", "value": "aggregation"},
      {"measurement": "uptake behaviour and fluorescence distribution", "setting": "C6 rat glioma", "value": "comparable uptake behaviour with vesicular as well as diffused cytosolic fluorescence distribution"},
      {"measurement": "uptake behaviour and fluorescence distribution", "setting": "[7]", "value": "comparable uptake behaviour with vesicular as well as diffused cytosolic fluorescence distribution"},
      {"measurement": "uptake behaviour and fluorescence distribution", "setting": "[8]", "value": "comparable uptake behaviour with vesicular as well as diffused cytosolic fluorescence distribution"},
      {"measurement": "uptake behaviour and fluorescence distribution", "setting": "[9]", "value": "comparable uptake behaviour with vesicular as well as diffused cytosolic fluorescence distribution"},
      {"measurement": "uptake behaviour and fluorescence distribution", "setting": "[10]", "value": "comparable uptake behaviour with vesicular as well as diffused cytosolic fluorescence distribution"},
      {"measurement": "delivery efficiency compared with penetratin", "setting": "NIH 3T3 fibroblasts [1]; 2.5 μM", "value": "better taken up by cells"},
      {"measurement": "cellular uptake / internalization efficiency", "setting": "NIH 3T3 fibroblasts [1]; 2.5 μM, 18 h, 37° C.", "value": "competently taken up by cells"},
      {"measurement": "uptake and cytosolic diffused fluorescence on addition of Dithiothreitol (DTT)", "setting": "NIH 3T3 fibroblasts [1]; excess DTT in the incubation medium", "value": "reduced the uptake as well as the cytosolic diffused fluorescence"},
      {"measurement": "concentration at which efficient cellular uptake and cytosolic location along with vesicular distribution is shown", "setting": "NIH 3T3 fibroblasts [1]; subtoxic concentrations", "value": "< 2.5", "unit": "µM"}
    ]},
    {"substance": "K (FITC)-KMDCRWRWKCCKK ({K(FITC)}-KMDCRWRWKCCKK; cysteine pairing not given here) [peptide 1, reference compound]", "values": [
      {"measurement": "internalization into cells", "setting": "cells", "value": "able to internalize into cells"},
      {"measurement": "intracellular fluorescence distribution (vesicular / diffused cytosolic)", "setting": "NIH 3T3 fibroblasts [5]", "value": "cytoplasmic diffusion"},
      {"measurement": "cellular uptake / internalization efficiency", "setting": "NIH 3T3 fibroblasts [1]; 2.5 μM, 18 h, 37° C.", "value": "efficient CPP"}
    ]}
  ]
}
